# Patent US20250228861A1, “Cancer Treatments Using MTA-Cooperative PRMT5 Inhibitors” (AMGEN INC., priority 2022, published 2025)
# “Also recorded” adds a separate entry of the source.
# Experiments:
# H292 cells [1] = assay: Combination with paclitaxel, CellTiter-Glo viability, Fa and CalcuSyn CI; assay type: cell-based; conditions: 6 days;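 note: fa derived from raw luminescence, CI computed in CalcuSyn from drug concentrations and Fa, with CI under 0.9 indicating synergism and 0.9 to 1.1 nearly additive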
# Experimental: (§1) Cell viability was measured by the CellTiter-Glo Luminescence assay. Raw luminescent values were converted to fraction affected (Fa) with the following equation:
# (§2) Synergy analysis was performed using the CalcuSyn software to determine CI scores based on the drug concentrations used and corresponding Fa values.
# A549 cells [2] = assay: as above; assay type: cell-based; conditions: 6 days
# Experimental: as §1, §2
# MIAPACA2T2 cells [3] = assay: Combination with gemcitabine, CellTiter-Glo viability, Fa and CalcuSyn CI; assay type: cell-based; conditions: 6 days
# Experimental: as §1, §2
# MIAPACA2T2 cells [4] = assay: Combination with carboplatin, CellTiter-Glo viability, Fa and CalcuSyn CI; assay type: cell-based; conditions: 6 days
# Experimental: as §1, §2
# MIAPACA2T2 cells [5] = assay: Combination with irinotecan, CellTiter-Glo viability, Fa and CalcuSyn CI; assay type: cell-based; conditions: 6 days
# Experimental: as §1, §2
# PSN1 cells [6] = assay: as above; assay type: cell-based; conditions: 6 days
# Experimental: as §1, §2
# [7] = tested on: HAP1- and HCT116 MTAP-null cells; assay: Global SDMA levels (ELISA / in-cell imaging) in MTAP-null cells; assay type: cell-based; conditions: HAP1 ELISA 3 days, HCT116 in-cell imaging 4 days
# Experimental: FIG. 1. […] Viability was measured by CellTiter-Glo and cooperativity was determined as follows: Cooperativity=WT IC50/MTAP-null IC50.
# HAP1 WT and MTAP-null global SDMA levels were assessed by an ELISA assay after 3 days treatment.
# HCT116 WT and MTAP-null global SDMA levels were assessed by an in-cell imaging assay after 4 days treatment.
# H292 NSCLC xenografts = assay: H292 NSCLC xenografts, combination with chemotherapy; assay type: in vivo, mice
# H292 cells [8] = assay: Combination with pemetrexed, CellTiter-Glo viability, Fa and CalcuSyn CI; conditions: 6 days;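 note: fa derived from CellTiter-Glo luminescence signal, CI calculated in CalcuSyn from doses and Fa, with 0.9–1.1 nearly additive and smaller values indicating synergism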
# Experimental: as §1, §2
# A549 cells [9] = assay: as above; conditions: 6 days
# Experimental: as §1, §2
# PSN1 cells [10] = assay: Combination with carboplatin, CellTiter-Glo viability, Fa and CalcuSyn CI; conditions: Compound B 0.0384 μM fixed + Carboplatin 3 μM, 6 days
# Experimental: as §1, §2
# [11] = Compound B 0.2916 μM fixed + Paclitaxel 0.0005 μM
# [12] = Compound B 0.2916 μM fixed + Paclitaxel 0.0007 μM
# [13] = Compound B 0.2916 μM fixed + Paclitaxel 0.0009 μM
# [14] = Compound B 0.2916 μM fixed + Paclitaxel 0.0011 μM
# [15] = Compound B 0.2916 μM fixed + Paclitaxel 0.0015 μM
# [16] = Compound B 0.2916 μM fixed + Paclitaxel 0.0019 μM
# [17] = Compound B 0.2916 μM fixed + Paclitaxel 0.0025 μM
# [18] = Compound B 0.1535 μM fixed + Paclitaxel 0.0005 μM
# [19] = Compound B 0.1535 μM fixed + Paclitaxel 0.0007 μM
# [20] = Compound B 0.1535 μM fixed + Paclitaxel 0.0009 μM
# [21] = Compound B 0.1535 μM fixed + Paclitaxel 0.0011 μM
# [22] = Compound B 0.1535 μM fixed + Paclitaxel 0.0015 μM
# [23] = Compound B 0.1535 μM fixed + Paclitaxel 0.0019 μM
# [24] = Compound B 0.1535 μM fixed + Paclitaxel 0.0025 μM
# [25] = Compound B 0.2916 μM fixed + Gemcitabine 0.002045 μM
# [26] = Compound B 0.1535 μM fixed + Pemetrexed 0.131687 μM
# [27] = Compound B 0.1535 μM fixed + Pemetrexed 0.197531 μM
# [28] = Compound B 0.1535 μM fixed + Pemetrexed 0.296296 μM
# [29] = Compound B 0.1535 μM fixed + Pemetrexed 0.444444 μM
# [30] = Compound B 0.1535 μM fixed + Pemetrexed 0.666667 μM
# [31] = Compound B 0.1535 μM fixed + Pemetrexed 1 μM
# [32] = Compound B 0.1535 μM fixed + Pemetrexed 1.5 μM
smiles,measurement,setting,value
Cc1cc2cc(C(=O)N(Cc3ccc(C(F)(F)F)cn3)[C@@H](C)c3ncccn3)ccc2nc1N [Compound B],Combination Fa,H292 cells [1]; [11],0.7127
same,Computed CI value,H292 cells [1]; [11],0.84
same,Combination Fa,H292 cells [1]; [12],0.7796
same,Computed CI value,H292 cells [1]; [12],0.758
same,Combination Fa,H292 cells [1]; [13],0.8302
same,Computed CI value,H292 cells [1]; [13],0.757
same,Combination Fa,H292 cells [1]; [14],0.8932
same,Computed CI value,H292 cells [1]; [14],0.724
same,Combination Fa,H292 cells [1]; [15],0.9425
same,Computed CI value,H292 cells [1]; [15],0.697
same,Combination Fa,H292 cells [1]; [16],0.9568
same,Computed CI value,H292 cells [1]; [16],0.8
same,Combination Fa,H292 cells [1]; [17],0.9674
same,Computed CI value,H292 cells [1]; [17],0.928
same,Combination Fa,A549 cells [2]; [18],0.7030
same,Computed CI value,A549 cells [2]; [18],0.545
same,Combination Fa,A549 cells [2]; [19],0.7177
same,Computed CI value,A549 cells [2]; [19],0.64
same,Combination Fa,A549 cells [2]; [20],0.7578
same,Computed CI value,A549 cells [2]; [20],0.716
same,Combination Fa,A549 cells [2]; [21],0.8365
same,Computed CI value,A549 cells [2]; [21],0.745
same,Combination Fa,A549 cells [2]; [22],0.9023
same,Computed CI value,A549 cells [2]; [22],0.786
same,Combination Fa,A549 cells [2]; [23],0.9387
same,Computed CI value,A549 cells [2]; [23],0.867
same,Combination Fa,A549 cells [2]; [24],0.9692
same,Computed CI value,A549 cells [2]; [24],0.898
same,Combination Fa,MIAPACA2T2 cells [3]; Compound B 0.2916 μM fixed + Gemcitabine 0.001461 μM,0.567
same,Combination Fa,MIAPACA2T2 cells [3]; [25],0.514
same,Computed CI value,MIAPACA2T2 cells [3]; [25],1.006
same,Computed CI value,MIAPACA2T2 cells [3]; Compound B 0.2916 μM fixed + Gemcitabine 0.002863 μM,0.823
same,Computed CI value,MIAPACA2T2 cells [3]; Compound B 0.2916 μM fixed + Gemcitabine 0.004009 μM,0.866
same,Computed CI value,MIAPACA2T2 cells [3]; Compound B 0.2916 μM fixed + Gemcitabine 0.005612 μM,0.843
same,Computed CI value,MIAPACA2T2 cells [3]; Compound B 0.2916 μM fixed + Gemcitabine 0.007857 μM,0.895
same,Computed CI value,MIAPACA2T2 cells [3]; Compound B 0.2916 μM fixed + Gemcitabine 0.011 μM,1.007
same,Combination Fa,MIAPACA2T2 cells [4]; Compound B 0.4374 μM fixed + Carboplatin 2.47793 μM,0.653
same,Computed CI value,MIAPACA2T2 cells [4]; Compound B 0.4374 μM fixed + Carboplatin 11.1111 μM,0.269
same,Computed CI value,MIAPACA2T2 cells [5]; Compound B 0.4374 μM fixed + Irinotecan 0.256 μM,0.602
same,Computed CI value,MIAPACA2T2 cells [5]; Compound B 0.4374 μM fixed + Irinotecan […],0.647
same,Computed CI value,PSN1 cells [6]; Compound B 0.0202 μM fixed + Irinotecan 0.088889 μM,0.806
same,Computed CI value,PSN1 cells [6]; Compound B 0.0202 μM fixed + Irinotecan 0.133333 μM,0.8
same,Computed CI value,PSN1 cells [6]; Compound B 0.0202 μM fixed + Irinotecan 0.2 μM,0.8
same,IC50,[7],0.2 nM
same,anti-tumor activity of combination with paclitaxel,H292 NSCLC xenografts; 100 mg/kg orally once daily + paclitaxel 20 mg/kg IP,significant anti-tumor activity versus either single agent alone; also recorded: significant anti-tumor activity versus paclitaxel or carboplatin alone
same,anti-tumor activity of combination with carboplatin,H292 NSCLC xenografts; orally once daily + carboplatin 60 mg/kg IP 1×/week,significant anti-tumor activity versus paclitaxel or carboplatin alone
same,Combination Fa,H292 cells [8]; [26],0.6769
same,Computed CI value,H292 cells [8]; [26],0.73
same,Combination Fa,H292 cells [8]; [27],0.7032
same,Computed CI value,H292 cells [8]; [27],0.587
same,Combination Fa,H292 cells [8]; [28],0.7484
same,Computed CI value,H292 cells [8]; [28],0.401
same,Combination Fa,H292 cells [8]; [29],0.7887
same,Computed CI value,H292 cells [8]; [29],0.309
same,Combination Fa,H292 cells [8]; [30],0.8438
same,Computed CI value,H292 cells [8]; [30],0.215
same,Combination Fa,H292 cells [8]; [31],0.8703
same,Computed CI value,H292 cells [8]; [31],0.216
same,Combination Fa,H292 cells [8]; [32],0.8508
same,Computed CI value,H292 cells [8]; [32],0.385
same,Combination Fa,A549 cells [9]; Compound B 0.1535 μM fixed + Pemetrexed 0.087792 μM,0.6401
same,Combination Fa,A549 cells [9]; [26],0.6629
same,Computed CI value,A549 cells [9]; [26],0.936
same,Combination Fa,A549 cells [9]; [27],0.6484
same,Computed CI value,A549 cells [9]; [27],1.172
same,Combination Fa,A549 cells [9]; [28],0.6761
same,Computed CI value,A549 cells [9]; [28],1.033
same,Combination Fa,A549 cells [9]; [29],0.7384
same,Computed CI value,A549 cells [9]; [29],0.639
same,Combination Fa,A549 cells [9]; [30],0.8303
same,Computed CI value,A549 cells [9]; [30],0.235
same,Combination Fa,A549 cells [9]; [31],0.8717
same,Computed CI value,A549 cells [9]; [31],0.139
same,Computed CI value,PSN1 cells [10],0.547
